Common to all, as to format: in vivo
For assay [1], the system named is Erysiphe cichoracearum. The experiment in a line: Powdery Mildew of Cucumber fungicidal activity (ERYSCI). As to conditions: Golovinomyces cichoracearum, 24 h, 1 Day Protectant, read-out: Disease Control ERYSCI 1DP. Here is the method: Technical grades of materials were dissolved in acetone, which were then mixed with nine volumes of water containing 110 ppm Triton X-100. The fungicide solutions were applied onto wheat seedlings using an automated booth sprayer to run-off. All sprayed plants were allowed to air dry prior to further handling. All fungicides were evaluated using the aforementioned method for their activity vs. all target diseases. Wheat leaf blotch and brown rust activity were also evaluated using track spray applications, in which case the fungicides were formulated as EC formulations, containing 0.1% Trycol 5941 in the spray solutions. Wheat plants (variety Yuma) were grown from seed in a greenhouse in 50% mineral soil/50% soil-less Metro mix until the first leaf was fully emerged, with 7-10 seedlings per pot. These plants were inoculated with an aqueous spore suspension of Septoria tritici either prior to or after fungicide treatments. After inoculation the plants were kept in 100% relative humidity (one day in a dark dew chamber followed by two to three days in a lighted dew chamber at 20° C.) to permit spores to germinate and infect the leaf. The plants were then transferred to a greenhouse set at 20° C. for disease to develop. When disease symptoms were fully expressed on the 1st leaves of untreated plants, infection levels were assessed on a scale of 0 to 100 percent disease severity. Percent disease control was calculated using the ratio of disease severity on treated plants relative to untreated plants. Evaluation of Fungicidal Activity: Powdery Mildew of Cucumber (Erysiphe cichoracearum; Bayer Code […]) Cucumber seedlings (variety Bush Pickle) were grown in soil-less Metro mix, with one plant per pot, and used in the test when 12 to 14 days old. Plants were inoculated with a spore suspension 24 hr following fungicide treatments. After inoculation the plants remained in the greenhouse set at 20° C. until disease was fully expressed. Fungicide formulation, application and disease assessment on the sprayed leaves followed the procedures as described in the Example A.

The subject of assay [2] is Cercospora beticola. Description: Leaf Spot of Sugar Beets fungicidal activity (CERCBE). The following applies: 24 h, 1 Day Protectant, sugar beet, read-out: Disease Control CERCBE 1DP. Here is the method: Technical grades of materials were dissolved in acetone, which were then mixed with nine volumes of water containing 110 ppm Triton X-100. The fungicide solutions were applied onto wheat seedlings using an automated booth sprayer to run-off. All sprayed plants were allowed to air dry prior to further handling. All fungicides were evaluated using the aforementioned method for their activity vs. all target diseases. Wheat leaf blotch and brown rust activity were also evaluated using track spray applications, in which case the fungicides were formulated as EC formulations, containing 0.1% Trycol 5941 in the spray solutions. Wheat plants (variety Yuma) were grown from seed in a greenhouse in 50% mineral soil/50% soil-less Metro mix until the first leaf was fully emerged, with 7-10 seedlings per pot. These plants were inoculated with an aqueous spore suspension of Septoria tritici either prior to or after fungicide treatments. After inoculation the plants were kept in 100% relative humidity (one day in a dark dew chamber followed by two to three days in a lighted dew chamber at 20° C.) to permit spores to germinate and infect the leaf. The plants were then transferred to a greenhouse set at 20° C. for disease to develop. When disease symptoms were fully expressed on the 1st leaves of untreated plants, infection levels were assessed on a scale of 0 to 100 percent disease severity. Percent disease control was calculated using the ratio of disease severity on treated plants relative to untreated plants. Evaluation of Fungicidal Activity: Leaf Spot of Sugar Beets (Cercospora beticola; Bayer Code CERCBE) Sugar beet plants (variety HH88) were grown in soil-less Metro mix and trimmed regularly to maintain a uniform plant size prior to test. Plants were inoculated with a spore suspension 24 hr after fungicide treatments. Inoculated plants were kept in a dew chamber at 22° C. for 48 hr then incubated in a greenhouse set at 24° C. under a clear plastic hood with bottom ventilation until disease symptoms were fully expressed. Fungicide formulation, application and disease assessment on the sprayed leaves followed the procedures as described in the Example A.

Assay [3] deals with Leptosphaeria nodorum. The experiment in a line: Wheat Glume Blotch fungicidal activity (LEPTNO). As to conditions: 100 ppm, 1 Day Protectant. On the procedure: Technical grades of materials were dissolved in acetone, which were then mixed with nine volumes of water containing 110 ppm Triton X-100. The fungicide solutions were applied onto wheat seedlings using an automated booth sprayer to run-off. All sprayed plants were allowed to air dry prior to further handling. All fungicides were evaluated using the aforementioned method for their activity vs. all target diseases. Wheat leaf blotch and brown rust activity were also evaluated using track spray applications, in which case the fungicides were formulated as EC formulations, containing 0.1% Trycol 5941 in the spray solutions. Wheat plants (variety Yuma) were grown from seed in a greenhouse in 50% mineral soil/50% soil-less Metro mix until the first leaf was fully emerged, with 7-10 seedlings per pot. These plants were inoculated with an aqueous spore suspension of Septoria tritici either prior to or after fungicide treatments. After inoculation the plants were kept in 100% relative humidity (one day in a dark dew chamber followed by two to three days in a lighted dew chamber at 20° C.) to permit spores to germinate and infect the leaf. The plants were then transferred to a greenhouse set at 20° C. for disease to develop. When disease symptoms were fully expressed on the 1st leaves of untreated plants, infection levels were assessed on a scale of 0 to 100 percent disease severity. Percent disease control was calculated using the ratio of disease severity on treated plants relative to untreated plants. Evaluation of Fungicidal Activity: Wheat Glume Blotch (Leptosphaeria nodorum; Bayer code […]) Wheat plants (variety Yuma) were grown from seed in a greenhouse in 50% mineral soil/50% soil-less Metro mix until the first leaf was fully emerged, with 7-10 seedlings per pot. These plants were inoculated with an aqueous spore suspension of Leptosphaeria nodorum 24 hr after fungicide treatments. After inoculation the plants were kept in 100% relative humidity (one day in a dark dew chamber followed by two days in a lighted dew chamber at 20° C.) to permit spores to germinate and infect the leaf. The plants were then transferred to a greenhouse set at 20° C. for disease to develop. Fungicide formulation, application and disease assessment followed the procedures as described in the Example A.

This note sets out measurements from US9179674B2, “Macrocyclic picolinamide compounds with fungicidal activity” (DOW AGROSCIENCES LLC, priority 2013, dated 2015).

The structures appear in SMILES notation.

Turning to `COc1ccnc(C(=O)N[C@H]2COC[C@H](Cc3ccc(F)cc3)[C@@H](OCC(C)C)[C@H](C)OC2=O)c1OC(C)=O` [Compound F60], the pest or weed control at 100 ppm in assay [1] and in assay [2] was 80 to 100% each time.

For `COc1ccnc(C(=O)N[C@H]2COC[C@H](Cc3ccc(Cl)cc3Cl)[C@@H](OC(=O)C(C)C)[C@H](C)OC2=O)c1OC(C)=O` [Compound F73], the pest or weed control at 100 ppm lay in the range of 0 to 80% in assay [1] and 80 to 100% in assay [2].

As to `COc1ccnc(C(=O)N[C@H]2COC[C@H](Cc3ccc(C)cc3)[C@@H](OCC(C)C)[C@H](C)OC2=O)c1OC(C)=O` [Compound F80], in assay [3], the “Disease Control LEPTNO 1DP” value is listed as “A (80-100)”. Further, the pest or weed control at 100 ppm in assay [1] and in assay [2] was 80 to 100% throughout.

Consider `COc1ccnc(C(=O)N[C@H]2COC[C@H](CCc3ccccc3)[C@@H](OCC(C)C)[C@H](C)OC2=O)c1OCOC(C)=O` [Compound F82], for which the pest or weed control at 100 ppm in assay [1] and in assay [2] was 0 to 80% each time.

For the compound `COc1ccnc(C(=O)N[C@H]2COC[C@H](Cc3cccc4ccccc34)[C@@H](OC(=O)C(C)C)[C@H](C)OC2=O)c1OCOC(C)=O` [Compound F83, (3S,6S,7R,8S)-3-(3-(acetoxymethoxy)-4-methoxypicolin-amido)-6-methyl-8-(naphthalen-1-ylmethyl)-4-oxo-1,5-dioxonan-7-yl isobutyrate], the “Disease Control LEPTNO 1DP” value in assay [3] was “A (80-100)”. Besides, the pest or weed control at 100 ppm in assay [2] is 80 to 100%.

Regarding `COc1ccnc(C(=O)N[C@H]2COC[C@H](Cc3ccc(F)cc3)[C@@H](OCC(C)C)[C@H](C)OC2=O)c1OCOC(C)=O` [Compound F96], in assay [3], the “Disease Control LEPTNO 1DP” value is “A (80-100)”. The pest or weed control at 100 ppm in assay [1] and in assay [2] was 80 to 100% in each case.

As to `COc1ccnc(C(=O)N[C@H]2COC[C@H](CC(F)(F)F)[C@@H](OC3CCCC3)[C@H](C)OC2=O)c1OCOC(C)=O` [Compound F105], the results for the pest or weed control at 100 ppm in assay [1] and in assay [2] were 0 to 80% and 80 to 100%, respectively.

On to `COc1ccnc(C(=O)N[C@H]2COC[C@H](CCC(C)C)[C@@H](OCCCC(F)(F)F)[C@H](C)OC2=O)c1OCOC(C)=O` [Compound F107], for which the pest or weed control at 100 ppm in assay [1] and in assay [2] was 80 to 100% throughout.

In the case of `COc1ccnc(C(=O)N[C@H]2COC[C@H](CCC(C)C)[C@@H](OC(=O)C3CC3)[C@H](C)OC2=O)c1OCOC(C)=O` [Compound F108], the pest or weed control at 100 ppm in assay [1] and in assay [2] was 80 to 100% in each case.

Regarding `COc1ccnc(C(=O)N[C@H]2COC[C@H](Cc3ccc(Cl)cc3Cl)[C@@H](OC(=O)C(C)C)[C@H](C)OC2=O)c1OCOC(C)=O` [Compound F110], the pest or weed control at 100 ppm lay in the range of 0 to 80% in assay [1] and 80 to 100% in assay [2].

Consider `COc1ccnc(C(=O)N[C@H]2COC[C@H](CC3CCCC3)[C@@H](OC(=O)C(C)C)[C@H](C)OC2=O)c1OCOC(C)=O` [Compound F114], for which the pest or weed control at 100 ppm in assay [1] and in assay [2] was 80 to 100% throughout.

For `COc1ccnc(C(=O)N[C@H]2COC[C@H](Cc3ccc(C)cc3)[C@@H](OCC(C)C)[C@H](C)OC2=O)c1OCOC(C)=O` [Compound F117], in assay [3], the “Disease Control LEPTNO 1DP” value is “A (80-100)”. The pest or weed control at 100 ppm in assay [1] and in assay [2] was 80 to 100% in each case.

As to `CCCCCO[C@@H]1[C@@H](Cc2ccc(Cl)cc2Cl)COC[C@H](NC(=O)c2nccc(OC)c2OCOC(=O)COCC)C(=O)O[C@H]1C` [Compound F122], the “Disease Control LEPTNO 1DP” value in assay [3] is reported as “A (80-100)”. Besides, the pest or weed control at 100 ppm lay in the range of 0 to 80% in assay [1] and 80 to 100% in assay [2].

Consider `CCCCCO[C@@H]1[C@@H](Cc2ccc(Cl)cc2Cl)COC[C@H](NC(=O)c2nccc(OC)c2OC(=O)CCOC)C(=O)O[C@H]1C` [Compound F123], for which, in assay [3], the “Disease Control LEPTNO 1DP” value was “A (80-100)”. For the same compound, the pest or weed control at 100 ppm in assay [1] and in assay [2] was 80 to 100% in each case.
